Target: farnesyl protein transferase (FPT)
Assay: In vitro enzyme assay: inhibition of farnesyl protein transferase (FPT, FTase)
Assay type: biochemical, rat; human
Details: concentration of compound which inhibits 50% of FPT transferase
From the text: 1. In vitro enzyme assays: Inhibition of farnesyl protein transferase and geranylgeranyl protein transferase.
Both farnesyl protein transferase (FPT) and geranylgeranyl protein transferase (GGPT) I are partially purified from rat brain by ammonium sulfate fractionation followed by Q-Sepharose (Pharmacia, Inc.) anion exchange chromatography essentially as described by Yokoyama et al (Yokoyama, K., et al., (1991), A protein geranylgeranyltransferase from bovine brain: Implications for protein prenylation specificity, Proc. Natl. Acad. Sci USA 88: 5302-5306, the disclosure of which is incorporated herein by reference thereto). Human farnesyl protein transferase is also expressed in E. coli, using cDNA clones encoding both the α and β subunits. The methods used are similar to those published (Omer, C. et al., (1993), Characterization of recombinant human farnesyl protein transferase: Cloning, expression, farnesyl diphosphate binding, and functional homology with yeast prenyl-protein transferases, Biochemistry 32:5167-5176). Human farnesyl protein transferase is partially-purified from the soluble protein fraction of E. coli as described above. The farnesyl protein transferase inhibitors disclosed herein may inhibit both human and rat enzyme with similar potencies. Two forms of val^12 -Ha-Ras protein are prepared as substrates for these enzymes, differing in their carboxy terminal sequence. One form terminates in cysteine-valine-leucine-serine (Ras-CVLS) the other in cystein-valine-leucine-leucine (Ras-CVLL). Ras-CVLS is a substrate for the farnesyl protein transferase while Ras-CVLL is a substrate for geranylgeranyl protein transferase I. The cDNAs encoding these proteins are constructed so that the proteins contain an amino-terminal extension of 6 histidine residues. Both proteins are expressed in Escherichia coli and purified using metal chelate affinity chromatography. The radiolabelled isoprenyl pyrophosphate substrates, [^3 H]farnesyl pyrophosphate and [^3 H]geranylgeranyl pyrophosphate, are purchased from a commercial source, such as DuPont/New England Nuclear.
Several methods for measuring farnesyl protein transferase activity are known (Reiss et al 1990, Cell 62: 81; Schaber et al 1990, J. Biol. Chem. 265: 14701; Manne et al 1990, PNAS 8: 7541; and Barbacid & Manne 1993, U.S. Pat. No. 5,185,248). […] Filter mats are washed once with 6% TCA, 2% SDS and radioactivity is measured in a Wallac 1204 Betaplate BS liquid scintillation counter. Percent inhibition is calculated relative to the DMSO vehicle control. […]

SMILES	IC50 [µM]
O=C(c1ccccc1)C1CCN(C(=O)Cc2ccncc2)CC1	> 60
Cc1c(C)c(C)c(C(=O)C2CCN(C(=O)Cc3ccncc3)CC2)c(C)c1C	12.1
O=C(c1ccc(F)cc1)C1CCN(C(=O)Cc2ccncc2)CC1	> 60
O=C(c1ccc(Cl)cc1)C1CCN(C(=O)Cc2ccncc2)CC1	60
